This passage reports IC50 results from patent US20050209278A1, “Piperidinyl- and piperazinyl-sulfonylmethyl hydroxamic acids and their use as protease inhibitors” (priority 2002, published 2005).

In the experiment the target is T1, MMP-14 (Homo sapiens, UniProt P50281).
T1 construct: The catalytic domain enzyme was expressed in E. coli inclusion bodies, solubilized in urea; made in house
Put plainly: In vitro MMP inhibition, IC50 determination (fluorogenic substrate I). The format is biochemical. Conditions: value in parenthesis; read-out: MMP-14 (IC-50). The method, then:
Several hydroxamic acids and salts thereof were analyzed in in vitro assays to determine their ability to inhibit the MMP cleavage of peptide substrates. […] and IC50 constants were calculated from the assayed hydroxamic acid-MMP interactions. Human recombinant MMP-1, MMP-2, MMP-9, MMP-13, and MMP-14 were used in this assay. All enzymes were prepared in Assignee's laboratories following usual laboratory procedures. Protocols for the preparation and use of these enzymes are available in the scientific literature. See, e.g., Enzyme Nomenclature (Academic Press, San Diego, Calif., 1992) (and the citations therein). See also, Freije et al., “Molecular cloning and expression of collagenase-3, a novel human matrix metalloproteinase produced by breast carcinomas,” J Biol. Chem., 269(24), 16766-16773 (1994). The MMP-14 full length cDNA was provided by Dr. Gregory Goldberg of Washington University (St. Louis, Mo.). The catalytic domain enzyme was expressed in E. coli inclusion bodies, solubilized in urea, purified on a preparative […] reverse phase HPLC column, and then refolded in the presence of zinc acetate and purified for use. All MMPs were activated using 4-aminophenylmercuric acetate (“APMA”, Sigma Chemical, St. Louis, Mo.) or trypsin. MMP-9 also was activated using human recombinant MMP-3 (purified in Assignee's laboratory following standard cloning and purification techniques). […] Substrate (I) was purchased from Baychem (Redwood City, Calif.), and substrate II was prepared Assignee's laboratory. Substrate I was used in the IC50 determination assays, while substrate II was used in the Ki determination assays. In the absence of MMP inhibitory activity, either substrate is cleaved at the Gly-Leu peptide bond. […] The stock solutions of the assayed hydroxamic acids (or salts thereof) were prepared in 1% dimethyl sulfoxide (DMSO). […] The experiment controls contained the same amount of Buffer A/DMSO as the assayed sample, but contained no hydroxamic acid (or salt thereof). The assays from which the IC50 determinations were made were performed as follows. […] Louis, Mo.). The assayed hydroxamic acid samples were incubated in MicrofluorTM White Plates (Dynatech, Chantilly, Va.) and analyzed on a Perkin Elmer […] plate reader (Norwalk, Conn.). The excitation wavelength was 328 nm, and the emission wavelength-415 nm. […] As stated in the previous paragraph, samples containing varying concentrations of the same assayed hydroxamic acid were prepared. Inhibition was measured as a reduction in fluorescent intensity as a function of MMP inhibitor concentration. […] All values in Table 2 are given in nM units. The IC50 measurements are in parenthesis.
`CCCCCCc1ccc(N2CCN(S(=O)(=O)C3(C(=O)NO)CCN(CCOC)CC3)CC2)cc1` [Example 199]: the IC50 amounted to 6710 nM.

Consider `CCCc1ccc(N2CCN(S(=O)(=O)C3(C(=O)NO)CCN(CCOC)CC3)CC2)cc1` [Example 200], for which the IC50 was 1490 nM.

For the compound `COCCN1CCC(C(=O)NO)(S(=O)(=O)N2CCN(c3ccc(Br)cc3)CC2)CC1` [Example 201], the IC50 was 301 nM.

On to `COCCN1CCC(C(=O)NO)(S(=O)(=O)N2CCN(c3ccc(OC(F)(F)F)cc3)CC2)CC1` [Example 202], for which the IC50 came out at 1170 nM.

As to `O=C(NO)C1(S(=O)(=O)N2CCN(c3ccc(OC(F)(F)F)cc3)CC2)CCN(C2CC2)CC1` [Example 203], the IC50 was found to be 648 nM.
